For 22 compounds, T/C results are on record in PubChem BioAssay AID256 (DTP/NCI, 2004).

“And” between values parts separate entries of the source, which are not always exact repeats. Identical values can stand only once. Toxic doses and inconclusive results are not listed.

The experiment concerns CD2F1 mice, L1210 leukemia ip, survival T/C. The experiment can be described thus: NCI In Vivo Anticancer Drug Screen. Data for tumor model L1210 Leukemia (intraperitoneal) in CD2F1 (CDF1) mice. The note with it: higher = longer survival. The method in brief: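 Implant tumor; dose compound or vehicle; measure endpoint in both groups; report treated divided by control.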
Where [1] appears, read: endpoint: mean survival time, dose: 100.0 mg/kg/injection, schedule: Q04DX003 (ip), vehicle: saline with Tween-80.
Where [2] appears, read: endpoint: mean survival time, dose: 400.0 mg/kg/injection, schedule: Q04DX003 (ip), vehicle: saline with Tween-80.
[3] abbreviates: endpoint: mean survival time, dose: 25.0 mg/kg/injection, schedule: Q04DX002 (ip), vehicle: saline.
Setting [4] is: endpoint: mean survival time, dose: 50.0 mg/kg/injection, schedule: Q04DX002 (ip), vehicle: saline.
Setting [5] is: endpoint: mean survival time, dose: 12.5 mg/kg/injection, schedule: Q01DX009 (ip), vehicle: other.
Where [6] appears, read: endpoint: mean survival time, dose: 25.0 mg/kg/injection, schedule: Q01DX009 (ip), vehicle: other.
Where [7] appears, read: endpoint: mean survival time, dose: 50.0 mg/kg/injection, schedule: Q01DX009 (ip), vehicle: other.
[8] abbreviates: endpoint: mean survival time, dose: 100.0 mg/kg/injection, schedule: Q01DX009 (ip), vehicle: other.
[9] abbreviates: endpoint: mean survival time, dose: 200.0 mg/kg/injection, schedule: Q01DX009 (ip), vehicle: other.
The mark [10] stands for this setting: endpoint: mean survival time, dose: 50.0 mg/kg/injection, schedule: Q01DX009 (ip), vehicle: saline with Tween-80.
[11] abbreviates: endpoint: mean survival time, dose: 100.0 mg/kg/injection, schedule: Q01DX009 (ip), vehicle: saline with Tween-80.
Setting [12] is: endpoint: mean survival time, dose: 200.0 mg/kg/injection, schedule: Q01DX009 (ip), vehicle: saline with Tween-80.
The mark [13] stands for this setting: endpoint: mean survival time, dose: 400.0 mg/kg/injection, schedule: Q01DX009 (ip), vehicle: saline with Tween-80.

On to `Clc1ccc(C#Cc2ccc(Cl)cc2)cc1`, for which the T/C is, setting by setting: (endpoint: mean survival time, dose: 75.0 mg/kg/injection, schedule: Q01DX001 (ip), vehicle: other) 103 % of control; under setting [1], 100 % of control; (endpoint: mean survival time, dose: 150.0 mg/kg/injection, schedule: Q01DX001 (ip), vehicle: other) 94 % of control; (endpoint: mean survival time, dose: 300.0 mg/kg/injection, schedule: Q01DX001 (ip), vehicle: other) 88 % of control; under setting [2], 87 % of control.

Turning to `Cc1ccc(C(C)C)c(OCCN)c1`, the T/C is 94 % of control under setting [3]; 97 % of control under setting [4]; 93 % of control and 97 % of control (endpoint: mean survival time, dose: 100.0 mg/kg/injection, schedule: Q04DX002 (ip), vehicle: saline).

With `CCOC(=O)CC(=O)COC(=O)CC(=O)OCC`, the T/C was 96 % of control under setting [5]; 100 % of control under setting [6]; 94 % of control under setting [7]; 97 % of control under setting [8]; 97 % of control under setting [9].

As to `CC(C)(C)C1COP(=S)(c2ccccc2)OC1` (stereo unspecified), the T/C (endpoint: mean survival time, dose: 25.0 mg/kg/injection, schedule: Q04DX003 (ip), vehicle: Klucel (hydroxypropylcellulose) (HPC)) is 94 % of control and 103 % of control; the T/C (endpoint: mean survival time, dose: 50.0 mg/kg/injection, schedule: Q04DX003 (ip), vehicle: Klucel (hydroxypropylcellulose) (HPC)) was 103 % of control and 97 % of control; the T/C (endpoint: mean survival time, dose: 100.0 mg/kg/injection, schedule: Q04DX003 (ip), vehicle: Klucel (hydroxypropylcellulose) (HPC)) was 97 % of control and 102 % of control.

With `C/C=C/CC1CCCCC1`, the T/C under setting [10] is 100 % of control, the T/C under setting [11] was 100 % of control and the T/C under setting [12] is 100 % of control.

Regarding `COc1cccc2c1C(=O)c1c(O)c3c(c(O)c1C2=O)C[C@H](O)C[C@@H]3OC1CC(N)C(O)C(C)O1` (stereo partly specified), the T/C was 107 % of control (endpoint: mean survival time, dose: 0.75 mg/kg/injection, schedule: Q01DX009 (ip), vehicle: saline); 105 % of control (endpoint: mean survival time, dose: 1.5 mg/kg/injection, schedule: Q01DX009 (ip), vehicle: saline); 111 % of control (endpoint: mean survival time, dose: 3.0 mg/kg/injection, schedule: Q01DX009 (ip), vehicle: saline); 121 % of control (endpoint: mean survival time, dose: 3.0 mg/kg/injection, schedule: Q01DX009 (ip), vehicle: water); 104 % of control (endpoint: mean survival time, dose: 6.0 mg/kg/injection, schedule: Q01DX009 (ip), vehicle: saline); 115 % of control (endpoint: mean survival time, dose: 12.0 mg/kg/injection, schedule: Q01DX009 (ip), vehicle: saline). Further, the T/C by setting is: (endpoint: mean survival time, dose: 12.0 mg/kg/injection, schedule: Q01DX009 (ip), vehicle: water) 118 % of control; (endpoint: mean survival time, dose: 24.0 mg/kg/injection, schedule: Q01DX009 (ip), vehicle: water) 152 % of control.

As to `Nc1ccccc1CCCC(N)C(=O)O` (stereo unspecified), the T/C reads like this: (endpoint: mean survival time, dose: 100.0 mg/kg/injection, schedule: Q01DX001 (ip), vehicle: saline with Tween-80) 97 % of control; (endpoint: mean survival time, dose: 200.0 mg/kg/injection, schedule: Q01DX001 (ip), vehicle: saline with Tween-80) 100 % of control; (endpoint: mean survival time, dose: 400.0 mg/kg/injection, schedule: Q01DX001 (ip), vehicle: saline with Tween-80) 93 % of control.

Turning to `N#CCCn1ccc2ccccc21`, the T/C is, setting by setting: under setting [8], 98 % of control; under setting [9], 104 % of control; (endpoint: mean survival time, dose: 400.0 mg/kg/injection, schedule: Q01DX009 (ip), vehicle: other) 98 % of control.

In the case of `CC(C)CC(C)OP(=S)(S)OC(C)CC(C)C` (stereo unspecified), the T/C (endpoint: mean survival time, dose: 12.5 mg/kg/injection, schedule: Q04DX002 (ip), vehicle: saline) is 95 % of control; the T/C under setting [3] was 95 % of control; the T/C under setting [4] was 109 % of control.

In the case of `Cc1cccn(O)c1=NC(=O)c1ccccc1`, the T/C by setting is: under setting [1], 95 % of control; (endpoint: mean survival time, dose: 200.0 mg/kg/injection, schedule: Q04DX003 (ip), vehicle: saline with Tween-80) 105 % of control; under setting [2], 86 % of control.

Take `C[CH2][Sn]([CH2]C)([O]S(C)(=O)=O)[O]S(C)(=O)=O`: the T/C (endpoint: mean survival time, dose: 0.78 mg/kg/injection, schedule: Q01DX009 (ip), vehicle: saline) is 101 % of control; the T/C (endpoint: mean survival time, dose: 1.56 mg/kg/injection, schedule: Q01DX009 (ip), vehicle: saline) was 107 % of control; the T/C (endpoint: mean survival time, dose: 3.12 mg/kg/injection, schedule: Q01DX009 (ip), vehicle: saline) was 107 % of control; the T/C (endpoint: mean survival time, dose: 6.25 mg/kg/injection, schedule: Q01DX009 (ip), vehicle: saline) was 111 % of control; the T/C (endpoint: mean survival time, dose: 12.5 mg/kg/injection, schedule: Q01DX009 (ip), vehicle: saline) is 114 % of control.

With `N#CC/C(=N\Nc1ccc([N+](=O)[O-])cc1[N+](=O)[O-])c1ccccc1`, the T/C is 100 % of control (endpoint: mean survival time, dose: 100.0 mg/kg/injection, schedule: Q04DX003 (ip), vehicle: saline sonified); 100 % of control (endpoint: mean survival time, dose: 200.0 mg/kg/injection, schedule: Q04DX003 (ip), vehicle: saline sonified); 97 % of control (endpoint: mean survival time, dose: 400.0 mg/kg/injection, schedule: Q04DX003 (ip), vehicle: saline sonified).

Take `COc1cccc(C(=O)c2ccncc2C(=O)O)c1OC`: the T/C under setting [5] is 110 % of control; the T/C under setting [6] is 100 % of control; the T/C under setting [7] was 93 % of control; the T/C under setting [8] is 96 % of control; the T/C under setting [9] was 96 % of control.

`CC1(C)CC(Br)(Cc2ccccc2)C(=O)c2ccccc21` (stereo unspecified): the T/C runs as follows: under setting [11], 95 % of control; under setting [12], 94 % of control; under setting [13], 94 % of control.

Take `CC(=O)NC(CCC(=O)O)C(=O)O.[NH-]C1CCCCC1[NH-].[Pt+2]` (stereo unspecified): the T/C is 97 % of control (endpoint: median survival time, dose: 6.25 mg/kg/injection, schedule: Q04DX003 (ip), vehicle: saline); 110 % of control (endpoint: median survival time, dose: 12.5 mg/kg/injection, schedule: Q04DX003 (ip), vehicle: saline); 102 % of control (endpoint: median survival time, dose: 25.0 mg/kg/injection, schedule: Q04DX003 (ip), vehicle: saline); 97 % of control (endpoint: median survival time, dose: 50.0 mg/kg/injection, schedule: Q04DX003 (ip), vehicle: saline); 112 % of control (endpoint: median survival time, dose: 100.0 mg/kg/injection, schedule: Q04DX003 (ip), vehicle: saline).

Consider `CCOc1ccc(OCC)c(NC(=O)c2ccccc2)c1`, for which the T/C was 98 % of control under setting [11], 107 % of control under setting [12] and 100 % of control under setting [13].

`CCCC/C=C/C(=O)OCC`: the T/C under setting [10] was 91 % of control and 96 % of control; the T/C under setting [11] was 103 % of control and 101 % of control; the T/C under setting [12] is 103 % of control and 101 % of control.

As for `Cc1ccc(S(=O)(=O)N(C)Cc2ccccc2)cc1`, the T/C under setting [11] is 96 % of control, the T/C under setting [12] is 106 % of control and the T/C under setting [13] is 98 % of control.

For the compound `S=C1SC2CCCCC2S1` (stereo unspecified), the T/C reads like this: (endpoint: mean survival time, dose: 100.0 mg/kg/injection, schedule: Q01DX001 (ip), vehicle: Klucel (hydroxypropylcellulose) (HPC)) 104 % of control; (endpoint: mean survival time, dose: 200.0 mg/kg/injection, schedule: Q01DX001 (ip), vehicle: Klucel (hydroxypropylcellulose) (HPC)) 107 % of control; (endpoint: mean survival time, dose: 400.0 mg/kg/injection, schedule: Q01DX001 (ip), vehicle: Klucel (hydroxypropylcellulose) (HPC)) 98 % of control.

`Nc1n[n+](-c2ccccc2)no1`: the T/C is, setting by setting: (endpoint: mean survival time, dose: 1.56 mg/kg/injection, schedule: Q01DX009 (ip), vehicle: water) 106 % of control; (endpoint: mean survival time, dose: 3.12 mg/kg/injection, schedule: Q01DX009 (ip), vehicle: water) 97 % of control and 100 % of control; (endpoint: mean survival time, dose: 6.25 mg/kg/injection, schedule: Q01DX009 (ip), vehicle: water) 102 % of control and 105 % of control; (endpoint: mean survival time, dose: 12.5 mg/kg/injection, schedule: Q01DX009 (ip), vehicle: water) 101 % of control and 108 % of control; (endpoint: mean survival time, dose: 25.0 mg/kg/injection, schedule: Q01DX009 (ip), vehicle: water) 121 % of control and 111 % of control; (endpoint: mean survival time, dose: 50.0 mg/kg/injection, schedule: Q01DX009 (ip), vehicle: water) 94 % of control.

As for `CC(=O)OCC1OC(n2ncc3c(Cl)ncnc32)C(OC(C)=O)C1OC(C)=O` (stereo unspecified), the T/C is 93 % of control (endpoint: mean survival time, dose: 12.5 mg/kg/injection, schedule: Q01DX005 (ip), vehicle: water); 93 % of control (endpoint: mean survival time, dose: 25.0 mg/kg/injection, schedule: Q01DX005 (ip), vehicle: water); 101 % of control (endpoint: mean survival time, dose: 50.0 mg/kg/injection, schedule: Q01DX005 (ip), vehicle: water); 112 % of control (endpoint: mean survival time, dose: 100.0 mg/kg/injection, schedule: Q01DX005 (ip), vehicle: water); 103 % of control (endpoint: mean survival time, dose: 200.0 mg/kg/injection, schedule: Q01DX005 (ip), vehicle: water).

Turning to `CCOC(=O)c1nc2cc(C)c(C)cc2[nH]c1=O`, the T/C was 95 % of control under setting [11], 89 % of control under setting [12] and 100 % of control under setting [13].
